Reference: ChEMBL document CHEMBL3867477 (Bioorg Med Chem Lett, 2016)
≈ marks a conversion by molar mass, not a printed value.

Columns and labels:
CHO = assay: Selectivity index, ratio of Ki for human OX2 receptor expressed on CHO cell membrane to Ki for Ile408-Val variant human OX1 receptor expressed on CHO cell membrane; type: cell-based
[1] = target: Voltage-dependent L-type calcium channel subunit alpha-1C (Homo sapiens, UniProt Q13936); assay: Inhibition of Cav1.2 (unknown origin)
[2] = Aqueous solubility of the compound at pH 7; type: physicochemical; details: aqueous medium
Orexin receptor type 2 [3] = target: T1, Orexin receptor type 2 (Homo sapiens, UniProt O43614); assay: Displacement of (2S)-N-(2-pyrrol-1-ylphenyl)-1-[2-[1-(tritritiomethyl)benzimidazol-2-yl]sulfanylacetyl]pyrrolidine-2-carboxamide from human OX2 receptor expressed on CHO cell membrane measured after 3 hrs by TopCount method; type: cell membranes
T1 sequence (O43614 whole entry): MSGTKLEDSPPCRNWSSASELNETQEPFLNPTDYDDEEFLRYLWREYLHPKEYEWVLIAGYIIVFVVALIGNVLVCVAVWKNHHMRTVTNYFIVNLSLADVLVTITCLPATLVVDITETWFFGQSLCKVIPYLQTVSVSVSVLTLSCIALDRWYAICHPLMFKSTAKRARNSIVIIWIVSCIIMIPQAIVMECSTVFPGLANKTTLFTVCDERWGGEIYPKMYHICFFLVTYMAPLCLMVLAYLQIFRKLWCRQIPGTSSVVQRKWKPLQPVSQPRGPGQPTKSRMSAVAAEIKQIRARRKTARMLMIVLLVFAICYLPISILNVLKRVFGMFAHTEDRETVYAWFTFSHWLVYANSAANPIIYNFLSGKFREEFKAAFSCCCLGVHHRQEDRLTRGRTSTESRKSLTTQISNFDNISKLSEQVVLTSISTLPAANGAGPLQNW

[4] = Displacement of (2S)-N-(2-phenylphenyl)-1-[2-[1-(tritritiomethyl)benzimidazol-2-yl]sulfanylacetyl]pyrrolidine-2-carboxamide from human OX1 receptor Ile408-Val mutant expressed on CHO cell membrane measured after 3 hrs by TopCount method; type: cell membranes
[5] = target: Sodium channel protein type 5 subunit alpha (Homo sapiens, UniProt Q14524); assay: Inhibition of Nav1.5 (unknown origin)
Sodium channel protein type 5 subunit alpha, sequence (Q14524 whole entry): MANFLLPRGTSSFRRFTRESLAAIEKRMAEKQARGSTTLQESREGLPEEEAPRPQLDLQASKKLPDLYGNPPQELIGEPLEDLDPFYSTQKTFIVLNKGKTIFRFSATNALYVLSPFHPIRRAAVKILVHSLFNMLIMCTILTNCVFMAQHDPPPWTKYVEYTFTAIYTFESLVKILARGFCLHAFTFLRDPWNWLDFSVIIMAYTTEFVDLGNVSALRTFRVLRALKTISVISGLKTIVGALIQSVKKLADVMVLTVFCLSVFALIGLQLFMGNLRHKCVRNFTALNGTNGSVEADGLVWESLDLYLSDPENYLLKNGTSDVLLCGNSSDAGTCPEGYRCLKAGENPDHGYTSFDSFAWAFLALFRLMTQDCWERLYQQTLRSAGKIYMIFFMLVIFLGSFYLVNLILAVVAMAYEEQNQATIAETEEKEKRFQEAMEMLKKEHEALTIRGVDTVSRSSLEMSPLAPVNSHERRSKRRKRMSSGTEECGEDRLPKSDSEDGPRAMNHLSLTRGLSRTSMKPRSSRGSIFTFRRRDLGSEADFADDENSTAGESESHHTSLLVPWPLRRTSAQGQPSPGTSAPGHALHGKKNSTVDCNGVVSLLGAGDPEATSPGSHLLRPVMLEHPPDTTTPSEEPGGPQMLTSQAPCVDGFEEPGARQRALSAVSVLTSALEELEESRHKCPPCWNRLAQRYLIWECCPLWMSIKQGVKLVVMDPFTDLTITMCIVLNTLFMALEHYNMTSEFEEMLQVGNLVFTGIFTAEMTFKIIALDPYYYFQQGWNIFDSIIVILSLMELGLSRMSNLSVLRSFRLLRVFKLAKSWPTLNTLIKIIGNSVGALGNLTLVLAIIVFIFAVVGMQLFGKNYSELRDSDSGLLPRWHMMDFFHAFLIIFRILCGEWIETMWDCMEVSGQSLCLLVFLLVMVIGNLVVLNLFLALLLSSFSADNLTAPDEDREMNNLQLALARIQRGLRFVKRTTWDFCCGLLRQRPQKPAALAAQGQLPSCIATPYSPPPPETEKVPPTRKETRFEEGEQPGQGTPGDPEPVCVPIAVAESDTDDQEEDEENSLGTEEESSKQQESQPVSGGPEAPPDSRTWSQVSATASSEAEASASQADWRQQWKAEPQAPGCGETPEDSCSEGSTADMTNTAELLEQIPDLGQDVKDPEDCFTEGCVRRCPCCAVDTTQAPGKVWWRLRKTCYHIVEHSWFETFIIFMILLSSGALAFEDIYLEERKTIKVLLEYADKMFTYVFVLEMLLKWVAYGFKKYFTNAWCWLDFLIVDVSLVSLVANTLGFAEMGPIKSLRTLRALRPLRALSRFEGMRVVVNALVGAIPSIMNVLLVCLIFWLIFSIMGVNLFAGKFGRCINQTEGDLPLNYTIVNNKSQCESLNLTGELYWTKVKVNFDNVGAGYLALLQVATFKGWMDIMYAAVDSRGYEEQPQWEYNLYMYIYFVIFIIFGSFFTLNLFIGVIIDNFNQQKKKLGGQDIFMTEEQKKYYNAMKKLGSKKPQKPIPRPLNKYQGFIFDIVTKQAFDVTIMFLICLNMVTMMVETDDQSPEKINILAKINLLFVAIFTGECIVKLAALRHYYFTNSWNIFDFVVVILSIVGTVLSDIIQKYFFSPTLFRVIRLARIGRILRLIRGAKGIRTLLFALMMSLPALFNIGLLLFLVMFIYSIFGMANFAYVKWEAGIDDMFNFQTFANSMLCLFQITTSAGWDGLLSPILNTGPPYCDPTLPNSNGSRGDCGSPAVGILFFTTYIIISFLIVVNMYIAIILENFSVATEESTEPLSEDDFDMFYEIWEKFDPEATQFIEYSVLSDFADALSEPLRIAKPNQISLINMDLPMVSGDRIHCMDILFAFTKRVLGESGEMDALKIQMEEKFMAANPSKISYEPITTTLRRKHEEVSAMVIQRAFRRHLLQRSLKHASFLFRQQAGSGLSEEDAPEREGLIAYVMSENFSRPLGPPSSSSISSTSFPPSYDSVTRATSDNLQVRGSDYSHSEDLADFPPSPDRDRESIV

[6] = Aqueous solubility of the compound at pH 2; type: physicochemical; details: aqueous medium
[7] = Intrinsic clearance in rat liver microsomes; type: ADME; details: read-out: CLH
[8] = Oral bioavailability in rat at 10 mg/kg; type: ADME, organism-based; details: in vivo
[9] = Clearance in rat at 2 mg/kg, iv; type: ADME, organism-based; details: in vivo
[10] = Half life in rhesus monkey at 2 mg/kg, iv or 10 mg/kg, po; type: ADME, organism-based, Macaca mulatta; details: in vivo
[11] = target: T2, Orexin/Hypocretin receptor type 1 (Homo sapiens) (UniProt O43613); assay: Binding affinity to OX1 receptor (unknown origin) assessed as dissociation rate constant
T2 sequence (whole entry): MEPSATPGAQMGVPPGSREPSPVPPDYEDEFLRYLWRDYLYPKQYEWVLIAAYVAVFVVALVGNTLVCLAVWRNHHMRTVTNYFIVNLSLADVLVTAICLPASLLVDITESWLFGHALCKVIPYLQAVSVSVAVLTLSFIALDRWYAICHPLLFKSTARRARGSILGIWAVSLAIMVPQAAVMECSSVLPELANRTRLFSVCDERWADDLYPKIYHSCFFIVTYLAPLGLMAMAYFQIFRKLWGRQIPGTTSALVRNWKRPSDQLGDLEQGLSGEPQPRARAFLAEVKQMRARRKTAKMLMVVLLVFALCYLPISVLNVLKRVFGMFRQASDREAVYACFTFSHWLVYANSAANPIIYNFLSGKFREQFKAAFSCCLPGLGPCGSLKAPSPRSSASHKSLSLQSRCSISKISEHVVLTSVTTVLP

[12] = Cmax in rat at 50 mg/kg, po; type: ADME, organism-based; design: dose 50 mg/kg, route oral; details: in vivo
[13] = Oral bioavailability in dog at 3 mg/kg; type: ADME, organism-based, Canis lupus familiaris; details: in vivo
[14] = Protein binding in rhesus monkey plasma; type: ADME, cell-free, Macaca mulatta; details: read-out: PPB (converted)
[15] = Clearance in dog at 0.5 mg/kg, iv or 10 mg/kg, po; type: ADME, organism-based, Canis lupus familiaris; details: in vivo
[16] = Half life in rat at 2 mg/kg, iv or 10 mg/kg, po; type: ADME, organism-based; details: in vivo
[17] = target: T3, Orexin/Hypocretin receptor type 1 (Homo sapiens, UniProt O43613); assay: Binding affinity to OX1 receptor (unknown origin)
T3 sequence (O43613 whole entry): T2 sequence (whole entry)

[18] = Selectivity index, ratio of IC50 for human OX1 receptor to IC50 for rat OX1 receptor
Rattus norvegicus [19] = assay: Displacement of (2S)-N-(2-phenylphenyl)-1-[2-[1-(tritritiomethyl)benzimidazol-2-yl]sulfanylacetyl]pyrrolidine-2-carboxamide from human OX1R expressed in transgenic rat brain administered orally; type: functional
[20] = Intrinsic clearance in rhesus monkey liver microsomes; type: ADME, Macaca mulatta; details: read-out: CLH
[21] = target: T2, Orexin/Hypocretin receptor type 1 (Homo sapiens); assay: Binding affinity to OX1 receptor (unknown origin) assessed as association rate constant
Rattus norvegicus [22] = species: Rattus norvegicus; assay: Selectivity index, ratio of IC50 for rat OX2 receptor to IC50 for rat OX1 receptor
[23] = Cmax in rat at 10 mg/kg, po; type: ADME, organism-based; design: dose 10 mg/kg, route oral; details: in vivo
[24] = Protein binding in dog plasma; type: ADME, cell-free, Canis lupus familiaris; details: read-out: PPB (converted)
[25] = AUC in rat at 10 mg/kg, po; type: ADME, organism-based; details: in vivo
[26] = Half life in dog at 0.5 mg/kg, iv or 10 mg/kg, po; type: ADME, organism-based, Canis lupus familiaris; details: in vivo
[27] = Protein binding in human plasma; type: ADME, cell-free; details: read-out: PPB (converted)
[28] = Antagonist activity at human OX1 receptor Ile408-Val mutant expressed on CHO cell membrane assessed as inhibition of Ala-6,12 orexin-A-induced calcium increase preincubated for 5 mins prior to Ala-6,12 orexin-A addition measured at 1 sec intervals for 1 min by Fluo-4AM dye-based FLIPR assay
[29] = Oral bioavailability in rhesus monkey at 30 mg/kg; type: ADME, organism-based, Macaca mulatta; details: in vivo
[30] = Intrinsic clearance in dog liver microsomes; type: ADME, Canis lupus familiaris; details: read-out: CLH
[31] = Clearance in rhesus monkey at 2 mg/kg, iv or 10 mg/kg, po; type: ADME, organism-based, Macaca mulatta; details: in vivo
Orexin receptor type 2 [32] = target: T4, Orexin receptor type 2 (Rattus norvegicus, UniProt P56719); type: functional
T4 sequence (P56719 whole entry): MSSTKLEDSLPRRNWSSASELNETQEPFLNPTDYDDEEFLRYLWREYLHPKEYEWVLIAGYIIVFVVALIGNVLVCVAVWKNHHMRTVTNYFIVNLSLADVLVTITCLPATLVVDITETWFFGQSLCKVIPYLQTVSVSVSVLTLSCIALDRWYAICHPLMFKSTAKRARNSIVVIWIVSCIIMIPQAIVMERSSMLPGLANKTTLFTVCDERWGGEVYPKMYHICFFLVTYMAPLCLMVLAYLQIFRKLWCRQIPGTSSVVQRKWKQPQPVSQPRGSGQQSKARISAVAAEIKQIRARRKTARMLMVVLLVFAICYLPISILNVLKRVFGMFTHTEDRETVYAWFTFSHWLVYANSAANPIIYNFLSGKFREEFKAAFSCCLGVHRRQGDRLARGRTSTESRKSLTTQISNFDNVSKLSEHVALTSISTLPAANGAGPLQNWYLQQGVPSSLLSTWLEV
Description: Antagonist activity at rat OX2 receptor assessed as inhibition of Ala-6,12 orexin-A-induced calcium increase preincubated for 5 mins prior to Ala-6,12 orexin-A addition measured at 1 sec intervals for 1 min by Fluo-4AM dye-based FLIPR assay

[33] = AUC in rat at 20 mg/kg, po; type: ADME, organism-based; details: in vivo
[34] = Cmax in rat at 20 mg/kg, po; type: ADME, organism-based; design: dose 20 mg/kg, route oral; details: in vivo
[35] = Apparent permeability of the compound; type: ADME; details: not told
[36] = Protein binding in rat plasma; type: ADME, cell-free; details: read-out: PPB (converted)
[37] = AUC in rat at 50 mg/kg, po; type: ADME, organism-based; details: in vivo
[38] = target: T5, Orexin/Hypocretin receptor type 1 (Rattus norvegicus, UniProt P56718); assay: Antagonist activity at rat OX1 receptor assessed as inhibition of Ala-6,12 orexin-A-induced calcium increase preincubated for 5 mins prior to Ala-6,12 orexin-A addition measured at 1 sec intervals for 1 min by Fluo-4AM dye-based FLIPR assay; type: functional
T5 sequence (P56718 whole entry): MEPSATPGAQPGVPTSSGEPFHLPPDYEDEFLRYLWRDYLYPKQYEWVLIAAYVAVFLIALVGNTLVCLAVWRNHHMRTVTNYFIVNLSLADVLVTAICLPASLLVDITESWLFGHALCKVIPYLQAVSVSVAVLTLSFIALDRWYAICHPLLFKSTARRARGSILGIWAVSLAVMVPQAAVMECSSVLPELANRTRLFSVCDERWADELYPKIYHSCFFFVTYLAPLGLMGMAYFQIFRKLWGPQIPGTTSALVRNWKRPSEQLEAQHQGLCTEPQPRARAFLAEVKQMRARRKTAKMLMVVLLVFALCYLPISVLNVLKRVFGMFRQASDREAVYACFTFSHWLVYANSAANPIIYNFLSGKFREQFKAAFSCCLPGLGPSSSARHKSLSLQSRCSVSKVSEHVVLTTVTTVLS

[39] = Intrinsic clearance in human liver microsomes; type: ADME; details: read-out: CLH
Orexin receptor type 2 [40] = target: T1, Orexin receptor type 2; type: functional, cell-based, CHO
Description: Antagonist activity at human OX2 receptor expressed on CHO cell membrane assessed as inhibition of Ala-6,12 orexin-A-induced calcium increase preincubated for 5 mins prior to Ala-6,12 orexin-A addition measured at 1 sec intervals for 1 min by Fluo-4AM dye-based FLIPR assay

Voltage-dependent L-type calcium channel subunit alpha-1C, sequence (Q13936 whole entry): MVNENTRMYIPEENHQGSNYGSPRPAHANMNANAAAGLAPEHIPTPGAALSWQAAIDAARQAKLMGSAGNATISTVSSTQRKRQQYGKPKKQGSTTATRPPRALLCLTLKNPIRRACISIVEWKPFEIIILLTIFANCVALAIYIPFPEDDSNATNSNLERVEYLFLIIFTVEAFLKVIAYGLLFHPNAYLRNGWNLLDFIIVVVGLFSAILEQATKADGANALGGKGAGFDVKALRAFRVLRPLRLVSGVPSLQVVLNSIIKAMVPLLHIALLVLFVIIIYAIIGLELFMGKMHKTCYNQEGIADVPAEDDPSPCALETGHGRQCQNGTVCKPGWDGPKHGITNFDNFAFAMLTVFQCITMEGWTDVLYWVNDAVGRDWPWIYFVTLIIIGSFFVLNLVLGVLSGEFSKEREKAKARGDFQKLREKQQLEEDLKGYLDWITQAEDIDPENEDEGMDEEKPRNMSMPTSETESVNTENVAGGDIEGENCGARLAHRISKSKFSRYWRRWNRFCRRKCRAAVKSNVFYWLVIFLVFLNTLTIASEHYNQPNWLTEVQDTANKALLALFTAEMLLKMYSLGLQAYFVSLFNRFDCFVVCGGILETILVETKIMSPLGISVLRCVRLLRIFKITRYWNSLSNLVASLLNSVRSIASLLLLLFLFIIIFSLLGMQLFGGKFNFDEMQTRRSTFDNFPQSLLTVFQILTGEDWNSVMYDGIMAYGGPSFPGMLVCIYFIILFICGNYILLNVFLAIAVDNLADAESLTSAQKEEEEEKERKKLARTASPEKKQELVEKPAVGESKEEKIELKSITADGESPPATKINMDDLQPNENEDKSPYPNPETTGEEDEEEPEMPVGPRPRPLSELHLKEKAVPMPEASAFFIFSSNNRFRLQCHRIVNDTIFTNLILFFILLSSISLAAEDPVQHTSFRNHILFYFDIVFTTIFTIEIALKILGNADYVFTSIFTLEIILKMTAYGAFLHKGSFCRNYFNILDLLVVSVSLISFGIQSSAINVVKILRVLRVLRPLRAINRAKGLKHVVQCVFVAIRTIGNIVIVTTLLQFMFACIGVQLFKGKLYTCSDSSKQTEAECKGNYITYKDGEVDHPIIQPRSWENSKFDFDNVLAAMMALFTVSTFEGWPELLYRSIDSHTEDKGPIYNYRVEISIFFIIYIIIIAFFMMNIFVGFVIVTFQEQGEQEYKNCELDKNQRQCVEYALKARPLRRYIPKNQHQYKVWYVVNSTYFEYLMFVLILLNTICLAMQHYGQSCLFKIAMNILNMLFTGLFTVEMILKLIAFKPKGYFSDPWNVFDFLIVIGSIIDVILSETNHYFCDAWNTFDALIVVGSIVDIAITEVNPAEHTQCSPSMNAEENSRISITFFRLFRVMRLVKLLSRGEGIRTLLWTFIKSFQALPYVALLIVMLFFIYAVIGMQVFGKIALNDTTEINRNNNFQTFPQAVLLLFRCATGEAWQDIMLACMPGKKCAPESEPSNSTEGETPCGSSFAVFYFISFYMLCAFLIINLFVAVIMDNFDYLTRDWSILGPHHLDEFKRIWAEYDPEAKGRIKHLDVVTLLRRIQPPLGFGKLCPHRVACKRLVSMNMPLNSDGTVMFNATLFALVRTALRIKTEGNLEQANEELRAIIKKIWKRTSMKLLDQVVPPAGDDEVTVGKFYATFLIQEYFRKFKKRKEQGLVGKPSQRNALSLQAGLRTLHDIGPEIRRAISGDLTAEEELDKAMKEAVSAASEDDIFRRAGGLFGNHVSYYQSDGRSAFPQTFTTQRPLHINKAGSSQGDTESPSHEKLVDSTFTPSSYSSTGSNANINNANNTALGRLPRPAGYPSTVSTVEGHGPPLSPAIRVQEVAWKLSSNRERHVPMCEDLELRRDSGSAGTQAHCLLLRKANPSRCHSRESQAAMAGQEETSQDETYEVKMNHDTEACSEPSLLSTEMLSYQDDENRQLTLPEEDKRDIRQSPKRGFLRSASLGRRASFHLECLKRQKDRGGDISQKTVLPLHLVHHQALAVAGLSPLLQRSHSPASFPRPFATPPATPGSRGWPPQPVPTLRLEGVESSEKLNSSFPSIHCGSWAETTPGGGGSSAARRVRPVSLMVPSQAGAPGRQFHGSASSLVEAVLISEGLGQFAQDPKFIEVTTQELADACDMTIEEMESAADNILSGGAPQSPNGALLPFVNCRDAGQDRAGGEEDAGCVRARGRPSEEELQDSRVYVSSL

O=C(c1ccnc2[nH]ccc12)N1CCC(F)(F)[C@@H](Oc2ccc3ccccc3n2)C1
Ratio Ki (CHO): 626
inhibition (INH) [1]: Active
solubility [2]: > 150 µM
Ki (Orexin receptor type 2 [3]): 1560 nM
Ki [4]: 2.5 nM
inhibition (INH) [5]: Active
solubility [6]: > 150 µM

O=C(c1cccc2[nH]cnc12)N1CCC(F)(F)[C@@H](Oc2ccc3ccccc3n2)C1
CLint scaled [7]: 829 mL/min/kg
Ratio Ki (CHO): 371
bioavailability [8]: 10%
clearance [9]: 69 mL/min/kg
Ki (Orexin receptor type 2 [3]): 1410 nM
Ki [4]: 3.8 nM

O=C(c1cccc2[nH]ncc12)N1CCC(F)(F)[C@@H](Oc2ccc3ccccc3n2)C1
CLint scaled [7]: 761 mL/min/kg
Ratio Ki (CHO): > 744
clearance [9]: 87.5 mL/min/kg
Ki (Orexin receptor type 2 [3]): > 1930 nM
Ki [4]: 2.6 nM

O=C(c1cccn2cncc12)N1CCC(F)(F)[C@@H](Oc2ccc3ccccc3n2)C1
half-life [10]: 48 min
K [11]: 0.102 s⁻¹
Cmax [12]: 24 µM
CLint scaled [7]: 320 mL/min/kg
Ratio Ki (CHO): 561
bioavailability [13]: 37%
fraction unbound [14]: 0.06
clearance [15]: 38 mL/min/kg
bioavailability [8]: 13%
half-life [16]: 168 min
Kd [17]: 0.94 nM
Ratio IC50 [18]: 3 to 4
Occ50 (Rattus norvegicus [19]): 0.032 µM
clearance [9]: 75 mL/min/kg
CLint scaled [20]: 775 mL/min/kg
K [21]: 1.08 ×10⁸ /M/s
Ratio IC50 (Rattus norvegicus [22]): > 625
Cmax [23]: 0.73 µM
fraction unbound [24]: 0.08
AUC [25]: 0.77 µM·h
solubility [2]: 171 µM (≈ 69.8 µg/mL)
Ki (Orexin receptor type 2 [3]): 1010 nM
half-life [26]: 30 min
Ki [4]: 1.8 nM
fraction unbound [27]: 0.11
IC50 [28]: 30 nM
bioavailability [29]: 1%
CLint scaled [30]: 485 mL/min/kg
clearance [31]: 33 mL/min/kg
Ki (Orexin receptor type 2 [32]): > 10000 nM
AUC [33]: 8.3 µM·h
Cmax [34]: 5 µM
Papp [35]: 35 ×10⁻⁶ cm/s
fraction unbound [36]: 0.08
AUC [37]: 153 µM·h
solubility [6]: 194 µM (≈ 79.2 µg/mL)
Ki [38]: 6800 to 10000 nM
CLint scaled [39]: 62 mL/min/kg
IC50 (Orexin receptor type 2 [40]): > 10000 nM
